In patent US10640488B2, “Antibacterial compounds” (AZIENDE CHIMICHE RIUNITE ANGELINI FRANCESCO A.C.R.A.F. …, priority 2016, dated 2020):

Key:
E. coli DNA gyrase = E. coli DNA gyrase (Escherichia coli, UniProt P0AES4+P0AES6); assay type: biochemical
S. aureus DNA gyrase = S. aureus DNA gyrase (Staphylococcus aureus, UniProt P0A0K8+P20831); assay type: biochemical
Chain of S. aureus DNA gyrase (P20831 whole entry): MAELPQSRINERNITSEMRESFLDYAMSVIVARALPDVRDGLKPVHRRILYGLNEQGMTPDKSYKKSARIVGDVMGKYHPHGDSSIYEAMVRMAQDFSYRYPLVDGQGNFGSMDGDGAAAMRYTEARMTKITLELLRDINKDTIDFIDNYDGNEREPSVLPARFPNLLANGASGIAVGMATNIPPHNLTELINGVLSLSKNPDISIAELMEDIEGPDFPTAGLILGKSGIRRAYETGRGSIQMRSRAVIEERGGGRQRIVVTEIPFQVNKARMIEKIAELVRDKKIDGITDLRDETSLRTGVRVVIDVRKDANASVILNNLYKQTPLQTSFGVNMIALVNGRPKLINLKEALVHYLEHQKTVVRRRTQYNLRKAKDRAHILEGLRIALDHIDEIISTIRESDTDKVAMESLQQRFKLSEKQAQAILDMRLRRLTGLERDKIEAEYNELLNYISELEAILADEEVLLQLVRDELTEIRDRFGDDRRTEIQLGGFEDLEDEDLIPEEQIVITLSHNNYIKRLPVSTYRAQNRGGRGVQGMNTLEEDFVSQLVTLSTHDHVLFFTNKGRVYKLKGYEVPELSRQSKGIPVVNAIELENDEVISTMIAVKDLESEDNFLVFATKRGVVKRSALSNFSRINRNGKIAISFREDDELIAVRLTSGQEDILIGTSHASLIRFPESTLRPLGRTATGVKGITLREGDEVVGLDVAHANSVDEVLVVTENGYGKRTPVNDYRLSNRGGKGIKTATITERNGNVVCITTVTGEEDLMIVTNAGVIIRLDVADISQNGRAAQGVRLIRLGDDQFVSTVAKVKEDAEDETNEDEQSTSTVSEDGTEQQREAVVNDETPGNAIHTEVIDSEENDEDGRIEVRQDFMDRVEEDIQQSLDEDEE
Chain of S. aureus DNA gyrase (P0A0K8 whole entry): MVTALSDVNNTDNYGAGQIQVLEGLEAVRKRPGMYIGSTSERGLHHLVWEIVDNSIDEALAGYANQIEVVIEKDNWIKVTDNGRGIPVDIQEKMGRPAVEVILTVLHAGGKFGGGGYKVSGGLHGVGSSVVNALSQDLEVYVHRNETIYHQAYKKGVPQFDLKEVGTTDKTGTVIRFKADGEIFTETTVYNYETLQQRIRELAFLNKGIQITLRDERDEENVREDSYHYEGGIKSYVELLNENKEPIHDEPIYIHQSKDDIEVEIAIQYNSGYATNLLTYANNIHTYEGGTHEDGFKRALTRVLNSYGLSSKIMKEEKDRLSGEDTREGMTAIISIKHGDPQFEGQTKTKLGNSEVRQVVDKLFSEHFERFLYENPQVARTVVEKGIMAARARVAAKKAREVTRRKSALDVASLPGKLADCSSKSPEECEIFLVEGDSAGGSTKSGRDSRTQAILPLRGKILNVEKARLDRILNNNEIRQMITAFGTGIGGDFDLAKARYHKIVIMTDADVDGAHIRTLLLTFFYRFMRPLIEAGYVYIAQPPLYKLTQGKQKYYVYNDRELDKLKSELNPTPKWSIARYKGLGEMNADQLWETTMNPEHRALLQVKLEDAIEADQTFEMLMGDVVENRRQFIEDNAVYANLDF

Chain of E. coli DNA gyrase (P0AES4 whole entry, one chain of several): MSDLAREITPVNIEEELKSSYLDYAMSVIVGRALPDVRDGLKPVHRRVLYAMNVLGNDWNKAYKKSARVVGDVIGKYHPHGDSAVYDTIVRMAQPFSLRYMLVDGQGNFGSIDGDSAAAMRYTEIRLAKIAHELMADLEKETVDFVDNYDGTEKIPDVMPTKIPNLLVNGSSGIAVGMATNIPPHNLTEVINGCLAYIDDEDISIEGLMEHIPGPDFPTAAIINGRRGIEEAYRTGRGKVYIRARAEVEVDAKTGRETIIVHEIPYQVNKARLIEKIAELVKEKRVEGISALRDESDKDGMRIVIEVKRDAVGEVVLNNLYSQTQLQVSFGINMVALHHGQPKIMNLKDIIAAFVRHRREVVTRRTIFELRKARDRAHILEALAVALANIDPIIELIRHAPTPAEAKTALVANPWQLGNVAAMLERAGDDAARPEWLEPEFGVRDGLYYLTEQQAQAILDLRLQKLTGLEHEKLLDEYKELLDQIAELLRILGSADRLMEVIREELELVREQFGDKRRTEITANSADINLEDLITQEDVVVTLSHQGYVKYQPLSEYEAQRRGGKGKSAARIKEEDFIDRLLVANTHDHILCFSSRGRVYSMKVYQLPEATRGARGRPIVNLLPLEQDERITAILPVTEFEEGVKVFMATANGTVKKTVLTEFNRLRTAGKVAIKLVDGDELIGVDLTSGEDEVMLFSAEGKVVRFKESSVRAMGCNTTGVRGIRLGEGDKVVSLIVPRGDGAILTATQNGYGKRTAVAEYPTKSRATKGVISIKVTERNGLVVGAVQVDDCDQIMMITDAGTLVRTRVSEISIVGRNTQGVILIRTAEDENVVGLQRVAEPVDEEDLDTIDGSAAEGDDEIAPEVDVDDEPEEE

SMILES | E. coli % inhibition DNA gyrase (E. coli DNA gyrase) [%] | S. aureus % inhibition DNA gyrase (S. aureus DNA gyrase) [%]
O=c1oc2ccccc2c2[nH]c(CNCC3CCN(c4nccc5ccc(F)cc45)C3)cc12 (single isomer, unassigned) [Compound 180, 2-[({[1-(7-fluoroisoquinolin-1-yl)pyrrolidin-3-yl]methyl}amino)methyl][1]benzopyrano[4,3-b]pyrrol-4(1H)-one] | 58 | 90
O=c1oc2ccccc2c2[nH]c(CNCC3CN(c4nccc5ccc(F)cc45)CCO3)cc12 (single isomer, unassigned) [Compound 182, 2-[({[4-(7-fluoroisoquinolin-1-yl)morpholin-2-yl]methyl}amino)methyl][1]benzopyrano[4,3-b]pyrrol-4(1H)-one] | 61 | 92
